Results from US20240190886A1, “BRM Targeting Compounds and Associated Methods of Use” (Prelude Therapeutics Incorporated, priority 2022, published 2024).

Columns and labels:
SMARCA4 = target: T1, SMARCA4 (Homo sapiens, UniProt P51532); assay: SMARCA4 HiBiT degradation assay in HeLa cells; format: cell-based; conditions: 18 hours incubation, Nano-Glo HiBiT Lytic detection
T1 construct: SMARCA2-HiBiT knock-in Hela monoclonal cell (CS302366) and SMARCA4-HiBiT knock-in Hela monoclonal cell (CS3023226) were purchased from Promega; host or cells: HeLa SMARCA4-HiBiT knock-in monoclonal cells (heterozygous knock-in)
Experimental: (§1) Example A. SMARCA2 HiBiT and SMARCA4 HiBiT Degradation Assay
(§2) HiBiT peptide knock-in of SMARCA2 in LgBiT expressing HEK293T cells was performed by CRISPR-mediated tagging system as described Promega. The homozygous HiBiT knock-in on c-terminus SMARCA2 was confirmed by sanger sequence. SMARCA2-HiBiT knock-in Hela monoclonal cell (CS302366) and SMARCA4-HiBiT knock-in Hela monoclonal cell (CS3023226) were purchased from Promega. The heterozygous HiBiT-knock-in was confirmed by sanger sequence in both SMARCA2-HiBiT and SMARCA4-HiBiT monoclonal cells.
(§3) SMARCA2 HiBiT and SMARCA4 HiBiT degradation assay in HeLa cells
(§4) Dispense 10 ul aliquot of prepared Hela-SMARCA2-HiBiT or Hela-SMARCA4-HiBiT cells (1:1 ratio of cells:Trypan Blue (#1450013, Bio-Rad)) onto cell counting slide (#145-0011, Bio-Rad) and obtain cell density and cell viability using cell counter (TC20, Bio-Rad). Remove appropriate volume of resuspended cells from culture flask to accommodate 2500 cells/well @20 μL/well. Transfer Hela-HiBiT cells to 50 mL conical (#430290, Corning). Spin down at 1000 rpm for 5 min using tabletop centrifuge (SPINCHRON 15, Beckman). Discard supernatant and resuspend cell pellet in modified EMEM (#30-2003, ATCC) cell culture media containing 10% FBS (F2422-500ML, Sigma), and 1X Penicillin/Streptomycin (200 g/L) (30-002-CI, Corning) to a cell density of 125,000 cells/mL. Dispense 20 μLof resuspended Hela-HiBit cells per well in 384-well TC treated plate (#12-565-343, Thermo Scientific) using standard cassette (#50950372, Thermo Scientific) on Multidrop Combi (#5840310, Thermo Scientific) inside laminar flow cabinet.
(§5) Compounds were dissolved in DMSO to make 10 mM stock and 3-fold series dilutions were further conducted keeping the highest concentration 10 RM. Dispense test compounds onto plates using digital liquid dispenser (D300E, Tecan). Incubate plates in humidified tissue culture incubator @37° C. for 18 hours. Add 20 μL of prepared Nano-Glo® HiBiT Lytic detection buffer (N3050, Promega) to each well of 384-well plate using small tube cassette (#24073295, Thermo Scientific) on Multidrop Combi, incubate @ RT for 30-60 min. Read plates on microplate reader (Envision 2105, PerkinElmer) using 384 well Ultra-Sensitive luminescence mode. Raw data files and compound information reports are swept into centralized data lake and deconvoluted using automated scripts designed by TetraScience, Inc. Data analysis, curve-fitting and reporting done in Dotmatics Informatics Suite using Screening Ultra module.
(§6) In Table 1, A=DC50<0.1 RM; B=0.1 μM≤DC50<1 μM and C=DC50>1 μM. In Table 4, A=Dmax>75% and B=50%<Dmax<75% and C=Dmax<50%.

SMARCA2 = target: T2, SMARCA2 (Homo sapiens, UniProt P51531); assay: SMARCA2 HiBiT degradation assay in HeLa cells; format: cell-based; conditions: 18 hours incubation, Nano-Glo HiBiT Lytic detection
T2 construct: SMARCA2-HiBiT knock-in Hela monoclonal cell (CS302366) and SMARCA4-HiBiT knock-in Hela monoclonal cell (CS3023226) were purchased from Promega; host or cells: HeLa SMARCA2-HiBiT knock-in monoclonal cells (heterozygous knock-in)
Experimental: as §1, §2, §3, §4, §5, §6

[1] = test system: SMARCA4 mutated cancer cells; conditions: SMARCA 2/4 bromodomain inhibitors; literature statement; cited from earlier work

T1 sequence (P51532 whole entry): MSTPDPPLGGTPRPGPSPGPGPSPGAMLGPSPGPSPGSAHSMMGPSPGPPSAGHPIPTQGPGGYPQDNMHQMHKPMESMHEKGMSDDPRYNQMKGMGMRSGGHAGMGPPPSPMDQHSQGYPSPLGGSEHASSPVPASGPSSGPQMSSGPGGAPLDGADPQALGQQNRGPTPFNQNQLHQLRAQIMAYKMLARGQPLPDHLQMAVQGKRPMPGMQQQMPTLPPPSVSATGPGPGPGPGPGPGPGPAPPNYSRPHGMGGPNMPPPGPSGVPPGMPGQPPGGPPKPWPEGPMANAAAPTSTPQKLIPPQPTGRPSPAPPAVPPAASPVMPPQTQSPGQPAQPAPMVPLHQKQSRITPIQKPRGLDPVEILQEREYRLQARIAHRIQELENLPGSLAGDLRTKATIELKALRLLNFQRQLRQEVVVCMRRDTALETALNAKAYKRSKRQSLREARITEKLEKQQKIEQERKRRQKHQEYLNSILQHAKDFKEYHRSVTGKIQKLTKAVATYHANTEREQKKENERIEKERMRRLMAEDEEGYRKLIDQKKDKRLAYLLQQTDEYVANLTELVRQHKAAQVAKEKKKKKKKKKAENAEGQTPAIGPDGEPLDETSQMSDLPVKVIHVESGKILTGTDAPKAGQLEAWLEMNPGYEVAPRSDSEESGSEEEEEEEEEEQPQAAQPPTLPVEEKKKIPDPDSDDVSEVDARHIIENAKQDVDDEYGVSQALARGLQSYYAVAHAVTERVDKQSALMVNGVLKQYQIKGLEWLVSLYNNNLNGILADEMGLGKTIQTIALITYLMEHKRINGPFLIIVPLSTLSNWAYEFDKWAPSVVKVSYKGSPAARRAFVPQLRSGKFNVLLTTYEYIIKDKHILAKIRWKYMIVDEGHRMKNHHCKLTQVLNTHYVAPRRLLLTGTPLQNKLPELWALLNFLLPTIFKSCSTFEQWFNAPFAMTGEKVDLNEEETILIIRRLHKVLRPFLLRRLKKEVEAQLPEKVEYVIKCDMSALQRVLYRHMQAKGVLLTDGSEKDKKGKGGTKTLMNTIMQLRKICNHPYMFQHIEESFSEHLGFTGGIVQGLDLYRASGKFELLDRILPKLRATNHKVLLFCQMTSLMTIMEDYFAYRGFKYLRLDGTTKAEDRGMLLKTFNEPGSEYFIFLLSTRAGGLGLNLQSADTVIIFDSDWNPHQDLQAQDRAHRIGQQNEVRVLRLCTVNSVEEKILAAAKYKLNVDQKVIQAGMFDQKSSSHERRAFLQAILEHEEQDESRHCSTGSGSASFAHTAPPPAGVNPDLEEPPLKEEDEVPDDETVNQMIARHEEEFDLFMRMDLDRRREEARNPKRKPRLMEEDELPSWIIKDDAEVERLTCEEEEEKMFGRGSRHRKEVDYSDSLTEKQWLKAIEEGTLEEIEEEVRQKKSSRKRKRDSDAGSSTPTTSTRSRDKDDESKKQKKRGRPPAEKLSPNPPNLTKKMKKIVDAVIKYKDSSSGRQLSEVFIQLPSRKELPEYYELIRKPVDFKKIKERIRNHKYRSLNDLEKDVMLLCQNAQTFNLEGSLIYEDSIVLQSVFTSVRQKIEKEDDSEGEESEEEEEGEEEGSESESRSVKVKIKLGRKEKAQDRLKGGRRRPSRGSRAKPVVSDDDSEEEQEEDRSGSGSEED
T2 sequence (P51531 whole entry): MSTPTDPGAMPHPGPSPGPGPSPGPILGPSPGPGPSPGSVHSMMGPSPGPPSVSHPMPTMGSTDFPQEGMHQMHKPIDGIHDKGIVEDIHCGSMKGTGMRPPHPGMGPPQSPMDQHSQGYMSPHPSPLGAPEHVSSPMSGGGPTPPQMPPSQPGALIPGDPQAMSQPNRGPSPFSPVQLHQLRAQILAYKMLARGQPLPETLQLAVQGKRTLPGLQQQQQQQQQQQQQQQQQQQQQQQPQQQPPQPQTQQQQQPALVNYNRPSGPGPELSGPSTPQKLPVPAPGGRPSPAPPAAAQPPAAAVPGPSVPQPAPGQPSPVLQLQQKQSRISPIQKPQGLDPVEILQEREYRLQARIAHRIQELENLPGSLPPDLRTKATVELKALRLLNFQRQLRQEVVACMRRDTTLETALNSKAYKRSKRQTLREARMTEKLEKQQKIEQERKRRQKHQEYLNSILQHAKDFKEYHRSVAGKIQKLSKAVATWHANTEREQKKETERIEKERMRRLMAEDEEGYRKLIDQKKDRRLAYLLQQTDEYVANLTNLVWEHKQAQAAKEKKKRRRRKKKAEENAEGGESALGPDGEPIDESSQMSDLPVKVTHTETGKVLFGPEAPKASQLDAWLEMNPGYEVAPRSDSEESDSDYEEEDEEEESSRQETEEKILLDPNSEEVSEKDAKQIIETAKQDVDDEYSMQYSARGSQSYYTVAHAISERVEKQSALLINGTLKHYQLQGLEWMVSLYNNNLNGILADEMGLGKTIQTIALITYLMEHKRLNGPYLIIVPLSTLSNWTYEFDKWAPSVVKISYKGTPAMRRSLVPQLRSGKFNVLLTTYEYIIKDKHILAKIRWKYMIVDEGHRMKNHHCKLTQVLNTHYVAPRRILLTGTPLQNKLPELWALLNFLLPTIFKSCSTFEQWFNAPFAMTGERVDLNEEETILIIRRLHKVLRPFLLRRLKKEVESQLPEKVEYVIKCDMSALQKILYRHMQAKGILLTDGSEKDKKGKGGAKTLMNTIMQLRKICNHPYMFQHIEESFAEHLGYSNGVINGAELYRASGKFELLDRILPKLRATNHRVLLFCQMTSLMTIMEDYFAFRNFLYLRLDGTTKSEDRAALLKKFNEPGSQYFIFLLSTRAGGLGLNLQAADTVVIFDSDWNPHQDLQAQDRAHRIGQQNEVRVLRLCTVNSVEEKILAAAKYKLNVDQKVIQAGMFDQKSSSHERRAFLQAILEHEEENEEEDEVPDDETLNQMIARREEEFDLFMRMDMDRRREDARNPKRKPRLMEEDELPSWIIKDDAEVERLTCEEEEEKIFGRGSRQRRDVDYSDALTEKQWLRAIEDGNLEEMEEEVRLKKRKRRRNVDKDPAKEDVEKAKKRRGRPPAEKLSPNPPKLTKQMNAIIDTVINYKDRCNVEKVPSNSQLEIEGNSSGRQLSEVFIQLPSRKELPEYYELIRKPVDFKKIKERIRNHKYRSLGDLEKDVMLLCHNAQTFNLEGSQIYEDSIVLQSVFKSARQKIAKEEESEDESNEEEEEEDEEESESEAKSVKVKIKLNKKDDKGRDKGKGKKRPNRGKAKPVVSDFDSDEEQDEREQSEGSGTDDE

Compound	DC50 (SMARCA4)	Dmax (SMARCA4)	DC50 (SMARCA2)	Dmax (SMARCA2)	effects on cell proliferation inhibition [1]
O=C1CCC(c2ccc(C3CCN(Cc4ccc(O[C@H]5CN6c7cc(-c8ccccc8O)nnc7NC[C@@]6(C(F)F)C5)nc4)CC3)cc2)C(=O)N1 (stereo partly drawn) [Example 15, 3-(4-(1-((6-(((6aR,8R)-6a-(difluoromethyl)-2-(2-hydroxyphenyl)-5,6,6a,7,8,9-hexahydropyrrolo[1′,2′:4,5]pyrazino[2,3-c]pyridazin-8-yl)oxy)pyridin-3-yl)methyl)piperidin-4-yl)phenyl)piperidine-2,6-dione]	< 100 nM	> 75%	< 100 nM	50 to 75%	–
CC[C@@]12CNc3nnc(-c4ccccc4O)cc3N1C[C@H](Oc1ccc(CN3CCC(c4ccc(C5CCC(=O)NC5=O)cc4)CC3)cn1)C2 (stereo partly drawn) [Example 16, 3-(4-(1-((6-(((6aR,8R)-6a-ethyl-2-(2-hydroxyphenyl)-5,6,6a,7,8,9-hexahydro-pyrrolo[1′,2′:4,5]pyrazino[2,3-c]pyridazin-8-yl)oxy)pyridin-3-yl)methyl)piperidin-4-yl)phenyl)piperidine-2,6-dione]	< 100 nM	> 75%	< 100 nM	> 75%	–
C[C@@H]1CN(CC2CCN(c3ccc4cnn(C5CCC(=O)NC5=O)c4c3)CC2)C[C@H](C)N1C(=O)N1CCN2c3cc(-c4ccccc4O)nnc3NC[C@H]2C1 (stereo partly drawn) [Example 5, 3-(6-(4-(((3R,5S)-4-((S)-2-(2-hydroxyphenyl)-6,6a,7,8,9,10-hexahydro-5H-pyrazino[1′,2′:4,5]pyrazino[2,3-c]pyridazine-8-carbonyl)-3,5-dimethylpiperazin-1-yl)methyl)piperidin-1-yl)-1H-indazol-1-yl)piperidine-2,6-dione]	> 1000 nM	< 50%	100 to 1000 nM	< 50%	–
O=C(/C=C/N1C[C@H]2C[C@@H]1CN2c1ccccn1)c1ccccc1O [PFI-3]	–	–	–	–	none to minor effects
